Measured values from patent US11939314B2, “Quinolin-2-one derivatives” (MERCK PATENT GMBH, priority 2016, dated 2024).

Legend:
c-Kit(V654A) = molecular target: T1, c-Kit(V654A) (Homo sapiens, UniProt P10721, V654A); assay: c-Kit(V654A) assay; type: biochemical; conditions: recombinant human c-Kit aa 544-end, 200 μM ATP, 1.4E-06 means 1.4×10^−6, read-out: Inhibition (IC50) of c-KIT (V654A)
T1 construct: amino acids 544-end containing the V654A mutation; GST (N)
Description: (§1) c-Kit(V654A) (N-terminal GST-tagged, recombinant human c-Kit, amino acids 544-end containing the V654A mutation) is incubated with 8 mM MOPS pH 7.0, 0.2 mM EDTA, 250 μM GGMEDIYEFMGGKKK, 10 mM MgAcetate and [gamma-33P-ATP] (specific activity approx. 500 cpm/pmol, concentration 200 μM). The reaction is initiated by the addition of the MgATP mix. After incubation for 40 minutes at room temperature, the reaction is stopped by the addition of 3% phosphoric acid solution. 10 μL of the reaction is then spotted onto a P30 filtermat and washed three times for 5 minutes in 75 mM phosphoric acid and once in methanol prior to drying and scintillation counting.

PDGFRalpha(V561D) = molecular target: T2, PDGFRalpha(V561D) (Homo sapiens, UniProt P16234, V561D); assay: PDGFRalpha(V561D) assay; type: biochemical; conditions: recombinant human PDGFRalpha aa 550-end, 200 μM ATP, 1.4E-06 means 1.4×10^−6, read-out: Inhibition (IC50) of PDGFRα (V561D)
T2 construct: recombinant human PDGFRalpha, amino acids 550end containing the V561 D mutation; 6His (N)
Description: as §1, with “PDGFRalpha(V561D)” for “c-Kit(V654A)”, “6His-tagged,” for “GST-tagged,”, “PDGFRalpha,” for “c-Kit,”, “550end” for “544-end”, “V561 D” for “V654A”

T1 sequence (P10721 544-976 V654A): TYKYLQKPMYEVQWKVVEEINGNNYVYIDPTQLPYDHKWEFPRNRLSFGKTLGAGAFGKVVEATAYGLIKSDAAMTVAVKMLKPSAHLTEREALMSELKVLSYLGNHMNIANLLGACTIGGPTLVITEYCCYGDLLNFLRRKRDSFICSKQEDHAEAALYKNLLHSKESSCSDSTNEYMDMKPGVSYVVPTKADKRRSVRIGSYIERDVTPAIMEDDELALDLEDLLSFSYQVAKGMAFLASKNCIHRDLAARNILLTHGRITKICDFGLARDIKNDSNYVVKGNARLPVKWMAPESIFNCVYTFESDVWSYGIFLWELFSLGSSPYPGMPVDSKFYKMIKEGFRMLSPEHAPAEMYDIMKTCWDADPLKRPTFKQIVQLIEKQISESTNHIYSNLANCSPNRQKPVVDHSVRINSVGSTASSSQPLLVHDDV
T2 sequence (P16234 550-1089 V561D): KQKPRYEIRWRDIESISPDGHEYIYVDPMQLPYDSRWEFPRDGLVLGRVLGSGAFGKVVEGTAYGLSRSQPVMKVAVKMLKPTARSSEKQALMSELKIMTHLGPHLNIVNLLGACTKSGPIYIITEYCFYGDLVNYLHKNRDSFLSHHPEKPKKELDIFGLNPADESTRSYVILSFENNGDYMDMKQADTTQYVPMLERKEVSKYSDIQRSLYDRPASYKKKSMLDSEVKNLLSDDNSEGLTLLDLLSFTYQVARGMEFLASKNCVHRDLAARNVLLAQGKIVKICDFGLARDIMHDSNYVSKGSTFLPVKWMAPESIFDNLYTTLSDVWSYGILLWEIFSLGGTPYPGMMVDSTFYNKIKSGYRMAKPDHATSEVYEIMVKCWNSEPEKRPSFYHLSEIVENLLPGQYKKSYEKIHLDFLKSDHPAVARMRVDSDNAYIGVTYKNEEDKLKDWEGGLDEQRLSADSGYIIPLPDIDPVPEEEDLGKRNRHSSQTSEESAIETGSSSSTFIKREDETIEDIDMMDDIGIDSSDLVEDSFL

Compound	IC50 (c-Kit(V654A)) [nM]	IC50 (PDGFRalpha(V561D)) [nM]
O=C1COCCN1c1ccc(-n2cc(-c3cc4ccccc4[nH]c3=O)nn2)cc1F [A32, 3-{1-[3-fluoro-4-(3-oxo-morpholin-4-yl)-phenyl]-1H-[1,2,3]triazol-4-yl}-1H-quinolin-2-one]	64	11
O=C1COCCN1c1ccc(-n2cc(-c3cc4cc(F)ccc4[nH]c3=O)nn2)cc1F [A33, 6-fluoro-3-{1-[3-fluoro-4-(3-oxo-morpholin-4-yl)-phenyl]-1H-[1,2,3]triazol-4-yl}-1H-quinolin-2-one]	20	3
O=C1COCCN1c1ccc(-n2cc(-c3cc4ccccc4[nH]c3=O)nn2)cn1 [A34, 3-{1-[6-(3-oxo-morpholin-4-yl)-pyridin-3-yl]-1H-[1,2,3]triazol-4-yl}-1H-quinolin-2-one]	5800	110
Cc1cc(C(=O)N2CCOCC2)ccc1-n1cc(-c2cc3ccccc3[nH]c2=O)nn1 [A35, 3-{1-[2-methyl-4-(morpholine-4-carbonyl)-phenyl]-1H-[1,2,3]triazol-4-yl}-1H-quinolin-2-one]	650	49
CC(C)(O)c1ccc(-n2cc(-c3cc4ccccc4[nH]c3=O)nn2)cc1 [A36, 3-{1-[4-(1-hydroxy-1-methyl-ethyl)-phenyl]-1H-[1,2,3]triazol-4-yl}-1H-quinolin-2-one]	29	17
O=C(c1ccc(-n2cc(-c3cc4ccccc4[nH]c3=O)nn2)cc1F)N1CCOCC1 [A37, 3-{1-[3-fluoro-4-(morpholine-4-carbonyl)-phenyl]-1H-[1,2,3]triazol-4-yl}-1H-quinolin-2-one]	38	9
COc1cc(-n2cc(-c3cc4ccccc4[nH]c3=O)nn2)cc(OC)c1OC [A38, 3-[1-(3,4,5-trimethoxy-phenyl)-1H-[1,2,3]triazol-4-yl]-1H-quinolin-2-one]	3200	580
CNC(=O)c1ccc(-n2cc(-c3cc4ccccc4[nH]c3=O)nn2)cc1F [A39, 2-fluoro-N-methyl-4-[4-(2-oxo-1,2-dihydro-quinolin-3-yl)-[1,2,3]triazol-1-yl]-benzamide]	74	23
Cc1cc(-n2cc(-c3cc4ccccc4[nH]c3=O)nn2)ccc1C(=O)N1CCOCC1 [A40, 3-{1-[3-methyl-4-(morpholine-4-carbonyl)-phenyl]-1H-[1,2,3]triazol-4-yl}-1H-quinolin-2-one]	26	7
O=C(c1ccc(-n2cc(-c3cc4cnccc4[nH]c3=O)nn2)cc1)N1CCOCC1 [A41, 3-{1-[4-(morpholine-4-carbonyl)-phenyl]-1H-[1,2,3]triazol-4-yl}-1H-[1,6]naphthyridin-2-one]	240	44
CN(C)C(=O)c1ccc(-n2cc(-c3cc4ccncc4[nH]c3=O)nn2)cc1 [A42, N,N-dimethyl-4-[4-(2-oxo-1,2-dihydro-[1,7]naphthyridin-3-yl)-[1,2,3]triazol-1-yl]-benzamide]	84	38
O=c1[nH]c2ncccc2cc1-c1cnn(-c2ccccc2)c1 [A43, 3-(1-phenyl-1H-pyrazol-4-yl)-1H-[1,8]naphthyridin-2-one]	140	170
O=c1[nH]c2ccncc2cc1-c1cn(-c2ccc(F)cc2)nn1 [A45, 3-[1-(4-fluoro-phenyl)-1H-[1,2,3]triazol-4-yl]-1H-[1,6]naphthyridin-2-one]	1100	330
O=c1[nH]c2ccncc2cc1-c1cnn(-c2ccccc2)c1 [A46, 3-(1-phenyl-1H-pyrazol-4-yl)-1H-[1,6]naphthyridin-2-one]	370	150
O=C(c1ccc(-n2cc(-c3cc4cccnc4[nH]c3=O)nn2)cc1)N1CCOCC1 [A47, 3-{1-[4-(morpholine-4-carbonyl)-phenyl]-1H-[1,2,3]triazol-4-yl}-1H-[1,8]naphthyridin-2-one]	24	7
